According to US7968124B2, “Compositions for the reversal and detoxification of anesthetics and other compounds and methods of their use” (Lyotropic Therapeutics, Inc., priority 2004, dated 2011):
Converted amounts (≈) assume the structure as drawn. Where two headings read alike, the source gives them in different places.

Experiments:
[1] = Uptake of toxin into particles, centrifuge filter separation and HPLC: etomidate; settings: etomidate in the absence of albumin
[2] = Solubility of drugs in soy oil, water, tocopherol and PC/tocopherol/water cubic phase
Procedure: (§1) Methanol and dichloromethane were particularly effective for this purpose. After solubilizing the compound and soy oil or tocopherol together with the common solvent, the common solvent was then evaporated using a rotovap. At the resulting concentration of the compound in soy oil or tocopherol, the sample was monitored over approximately 4 weeks for any sign of precipitation, using centrifugation and microscopy; the microscopy was performed using a combination of Differential Interference Contrast (DIC), transmitted dark field, and polarizing modes.

[3] = Partition of amphotericin B between PC/alpha-tocopherol/water cubic phase and water (HPLC); assay type: physicochemical
Procedure: Amphotericin B provides an example of an API with high toxicity which has a site of action in the interior of a fungal lipid biomembrane.
An amount 0.0082 g of Amphotericin B and 0.8 mL of DMSO (dimethylsulfoxide) were added to a 16 mL test tube. The test tube was heated to 60° C. until the amphotericin B was completely dissolved. An amount 0.692 g of 2.5% DMPG in the phosphatidylcholine product Lipoid E80, 0.8 mL of DMSO, and 0.6 mL of ethanol were added to a second 16 mL test tube. The mixture was heated to 60° C. and vortexed until the Lipoid E80/DMPG was entirely dissolved. An amount 0.6873 g of vitamin E and 0.8 mL of DMSO were added to a third 16 mL test tube. The mixture was heated to 60° C. and vortexed until the vitamin E was completely dissolved. The contents of the second and third test tubes were added to the first test tube containing the amphotericin B and DMSO mixture. The test tube containing the entire mixture was heated to 60° C. for 30 minutes to ensure that all components were completely dissolved.
An amount of 10 mL of deionized water was added to the test tube. The test tube was gently shaken at 40 RPM for 30 minutes on a Lab-Line Junior Orbit Shaker. The aqueous portion was decanted and filtered through Aldrich medium speed filter paper into a clean test tube and labeled “wash 1”. This washing procedure was repeated three additional times to obtain “wash 2”, “wash 3”, and “wash 4”.
HPLC analysis was then performed to determine the amphotericin B concentrations in the 4 wash solutions and the final, quadruply-washed cubic phase. […] In contrast, the amphotericin B concentrations in the “wash 3” and “wash 4” solutions were both approximately 0.0035 mg/mL, thus making the partition coefficient on the order of 1,000.

[4] = Effective partition coefficients of local anesthetics into Example 10 dispersions in the presence of albumin; settings: dispersions and methods of Example 10, RA5-15E dispersion named
Procedure: Nanosep Omega centrifuge filters at 300,000 MWCO from Pall Filtron were used to separate particles from exterior phase.
For HPLC analysis, the bottom phase liquid (filtrate) was injected directly, and the top phase (retentate) dissolved in 500 microliters of methanol, then injected. […] Standards were run for each of the toxins, and toxin concentrations determined in the exterior (bottom) phase and in the top phase retentate.
The analysis proceeded as follows. […] From this and the top phase assay value, the concentration of toxin in the particles was back-calculated. This was then divided by the aqueous phase (bottom phase) concentration, since this was undiluted, in order to arrive at an effective partition coefficient.

[5] = pH 7.4; cited from earlier work
[6] = system: bupivacaine cardiotoxicity; test: Rescue in rat model with normally-lethal intravenous injection of bupivacaine; assay type: in vivo; settings: rats, 12 mg/Kg intravenously, all animals
Procedure: The RA5-5E and RA5-15E dispersions prepared in Example 10 were subsequently tested in vivo as a rescue agent in a rat model incorporating a normally-lethal intravenous injection of bupivacaine. Twelve adult male rats were randomly arranged into three groups of four animals each. Animals in each group were given a known lethal dose (12 mg/Kg) of the amide local anesthetic bupivacaine intravenously. Each animal was monitored for signs of acute cardiotoxicity. All animals became pulseless within 10 seconds of the injection of bupivacaine. When each animal became pulseless, it was treated immediately with mild chest compression and with one of the following: (i) 4 ml/Kg normal physiologic saline (Group A); (ii) 4 ml/Kg of dispersion RA5-15E of the instant invention with a 15 percent particle concentration (Group B); or, (iii) 6 ml/Kg of dispersion RA5-5E of the instant invention with a 5.6 percent particle concentration (Group C). […] The administration of the dispersion according to the instant invention rescued the animals from death due to the systemic toxicity of an overdose of a common local anesthetic agent.

[7] = Binding of strontium ions to cubic phase particles (precipitation, centrifugation); assay type: physicochemical; settings: 18.9 mM strontium chloride added to RA5-15E; immediate precipitation, centrifuged to the bottom
Text: A high degree of binding of strontium ions to the phosphatidylcholine in RA5-15E was evidenced by the immediate precipitation of the cubic phase, which centrifuged to the bottom of the dispersion. Were the heavy strontium ions not bound, the cubic phase would be less dense than water and would have centrifuged to the top of the dispersion, as is the usual case with other methods of precipitating the particles. Radiostrontium, and to a lesser extent strontium, have known toxic effects, as do related phosphatidylcholine-binding metals. More broadly, this Example illustrates how the effect of large bilayer surface areas in cubic phase particles can result in effective uptake of toxins that bind to bilayer components.

[8] = Partitioning of vecuronium bromide between phosphatidylcholine/tocopherol/water reversed cubic phase and water (HPLC); assay type: physicochemical
Procedure: In this Example, the partitioning of the quaternary ammonium skeletal muscle relaxant vecuronium bromide, a water-soluble compound with a low octanol-water partition coefficient, between a phosphatidylcholine/tocopherol/water reversed cubic phase and water is measured, and found to be very high, sufficiently high as to enable the use of the invention in attenuating the effect of the drug in the body of a mammal. An amount 0.6169 gm of phosphatidylcholine (Phospholipon 90G, from Phospholipid GmbH) was mixed with 0.6730 gm of alpha-tocopherol and 0.2194 gm of a 10% vecuronium bromide solution in water. An amount 1.1226 gm of this mixture was smeared onto the inner wall of a test tube, and 6.4495 gm of water added to the tube so as to contact the mixture. Upon swelling with water, the mixture became a reversed cubic phase. […] The partition coefficient between cubic phase and water was thus approximately 1,600 (or log KQW=3.2). […] One with ordinary skill in the art will recognize that the vecuronium mass balance checks correctly if one assumes that the water content of the final cubic phase, after swelling to equilibrium, is approximately 40%, which is in perfect accord with the phase diagram derived in this laboratory for this cubic phase region.

[9] = intravenous doses as high as 30 mg/Kg/day; cited from earlier work
[10] = oil or lipid, Solubility in soy oil

Procedure for physchem: as §1

CCOC(=O)c1cncn1[C@H](C)c1ccccc1 [Etomidate]
solubility (physchem; oil or lipid, Solubility in cubic phase with tocopherol, approx. 34% phosphatidylcholine, 31% tocopherol plus compound, 35% water): 105 mg/mL | solubility (physchem; [10]): 80 mg/mL (≈ 327 mM) | solubility (physchem; oil or lipid, Solubility in tocopherol): 200 mg/mL (≈ 819 mM) | solubility (physchem; water, Solubility in Water): 4.5e-05 mg/mL (≈ 0.000184 mM) | effective partition coefficient [1]: 309

CCC(C)n1ncn(-c2ccc(N3CCN(c4ccc(OCC5COC(Cn6cncn6)(c6ccc(Cl)cc6Cl)O5)cc4)CC3)cc2)c1=O (stereo not shown) [Itraconazole]
solubility ([2]; soy oil, oil or lipid): < 500 µg/mL | solubility ([2]; water): 0.001 µg/mL (≈ 1.42e-06 mM)

COc1c(C)c2c(c(O)c1C/C=C(\C)CCC(=O)OCCN1CCOCC1)C(=O)OC2 [Mycophenolate mofetil]
solubility ([2]; soy oil, oil or lipid): 3000 µg/mL (≈ 6.92 mM) | solubility ([2]; tocopherol, oil or lipid): 200000 µg/mL (≈ 461 mM) | solubility ([2]; water): 39 µg/mL (≈ 0.09 mM)

CC(=O)O[C@H]1C(=O)[C@@]2(C)[C@H]([C@H](OC(=O)c3ccccc3)[C@]3(O)C[C@H](OC(=O)[C@H](O)[C@@H](NC(=O)c4ccccc4)c4ccccc4)C(C)=C1C3(C)C)[C@]1(OC(C)=O)CO[C@@H]1C[C@@H]2O [Paclitaxel]
solubility (physchem; oil or lipid, Solubility in cubic phase with spearmint oil in place of tocopherol): 42 mg/mL (≈ 49.2 mM) | solubility (physchem; [10]): < 0.1 mg/mL | solubility (physchem; oil or lipid, Solubility in spearmint oil (used in place of tocopherol)): 100 mg/mL (≈ 117 mM)

C[C@@H]1[C@H](O)[C@@H](C)/C=C/C=C/C=C/C=C/C=C/C=C/C=C/[C@H](O[C@@H]2O[C@H](C)[C@@H](O)[C@H](N)[C@@H]2O)C[C@@H]2O[C@](O)(C[C@@H](O)C[C@@H](O)[C@H](O)CC[C@@H](O)C[C@@H](O)CC(=O)O[C@H]1C)C[C@H](O)[C@H]2C(=O)O [amphotericin B]
concentration in "wash 3" and "wash 4" solutions [3]: approximately 0.0035 mg/mL | true concentration in the cubic phase itself, estimated ([3]; corrected for entrapped water): approximately 3 mg/mL | concentration in quadruply-washed cubic phase (HPLC) ([3]; cubic phase with entrapped pockets of water): 1760 µg/mL

CCOC(=O)c1ccc(N)cc1 [benzocaine]
effective partition coefficient [4]: 148

CCCCN1CCCCC1C(=O)Nc1c(C)cccc1C (stereo not shown) [bupivacaine]
effective partition coefficient [4]: 62 | octanol-water coefficient [5]: greater than 1,000 | time to pulselessness after injection [6]: ≤ 10 s

[Cl-].[Cl-].[Sr+2] [strontium ions, strontium chloride]
binding of strontium ions to cubic phase particles [7]: strong binding

CC(=O)O[C@H]1C[C@@H]2CC[C@@H]3[C@H](CC[C@@]4(C)[C@H]3C[C@H]([N+]3(C)CCCCC3)[C@@H]4OC(C)=O)[C@@]2(C)C[C@@H]1N1CCCCC1 [vecuronium bromide]
log KQW [8]: 3.2 | partition coefficient between cubic phase and water [8]: approximately 1,600 | concentration in the aqueous phase ([8]; after 3 days of contact): 6 µg/mL | concentration in the cubic phase ([8]; after 3 days of contact): 10000 µg/mL | log KQW ([8]; anionic lipid content increased by incorporating a bile salt): approximately 4 | cubic phase-water partition coefficient ([8]; for at least some cubic phases of use in the invention): above 1,000

tocopherol
adverse effects of intravenous doses [9]: essentially free from any adverse effects
